In PMC10997566, “Kinetic profiling of novel spirobenzo-oxazinepiperidinone derivatives as equilibrative nucleoside transporter 1 inhibitors” (Purinergic Signalling, 2023):

What was measured:
hENT1 [1] = molecular target: T1, hENT1 (Homo sapiens, UniProt Q99808); assay: [3H]NBTI competition association assay (Motulsky and Mahan); details: 10 °C; for RT (residence time): RT = 1/koff; for koff / kon: human erythrocyte membranes, competitor at IC50 concentration, mean ± SEM
T1 sequence (Q99808 1-456): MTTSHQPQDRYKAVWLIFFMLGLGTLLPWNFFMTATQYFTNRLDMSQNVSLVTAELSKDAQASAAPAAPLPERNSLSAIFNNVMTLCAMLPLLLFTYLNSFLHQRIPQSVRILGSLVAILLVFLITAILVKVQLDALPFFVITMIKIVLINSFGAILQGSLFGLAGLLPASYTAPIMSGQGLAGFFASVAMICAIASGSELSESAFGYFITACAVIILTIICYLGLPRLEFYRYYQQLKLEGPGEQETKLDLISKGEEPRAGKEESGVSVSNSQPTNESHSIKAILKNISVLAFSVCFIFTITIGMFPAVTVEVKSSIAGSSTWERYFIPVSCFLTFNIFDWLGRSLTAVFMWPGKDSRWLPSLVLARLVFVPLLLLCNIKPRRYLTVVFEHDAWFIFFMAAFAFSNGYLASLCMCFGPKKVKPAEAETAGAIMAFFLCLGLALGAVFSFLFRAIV

hENT1 [2] = molecular target: T1, hENT1; assay: [3H]NBTI radioligand displacement assay; details: Ki relative to compound 1
hENT1 [3] = molecular target: T1, hENT1; assay: biochemical
hENT1 [4] = molecular target: T1, hENT1; assay: Washout assay with [3H]NBTI binding after four wash cycles; set-up: For our experiments, we used human erythrocytes as a source of hENT1; from tissue; host or cells: human erythrocytes (membrane preparation); details: 10 °C; for inhibitor washed away (recovery of [3H]NBTI binding): 1 h pre-incubation at 10 × IC50, four wash and centrifugation cycles, erythrocyte membranes
Protocol: Centrifugation at 13,200 rpm (16,100 × g) at 4 °C for 5 min separated pellet and supernatant, with the latter containing the unbound ligand being removed. Pellets were resuspended in 1 mL of assay buffer, and samples were incubated for 10 min at 10 °C. In total, four centrifugation-washing cycles were performed. […] Rapid filtration through GF/C filters using a Brandel harvester (Brandel, Gaithersburg, MD) terminated the experiment. Filters were washed three times using ice-cold wash buffer and the samples were counted by scintillation spectrometry using a Tri-carb 2900 TR liquid scintillation counter (Perkin Elmer, Boston, MA).
A washout assay was used to validate the findings in the competition association assays (Fig. 2C). […] The unwashed condition was also similarly assessed, but no wash and centrifugation cycle occurred before the determination of radioligand binding. The results of both washed and unwashed samples were compared to the control condition without any competitor (100% washed and unwashed radioligand binding, respectively).

hENT1 [5] = molecular target: T1, hENT1; set-up: For our experiments, we used human erythrocytes as a source of hENT1; from tissue; host or cells: human erythrocytes (membrane preparation); method as in PMID 31830468; details: earlier study, same experimental protocol; cited from earlier work

| Compound | RT (residence time) (hENT1 [1]) [min] | koff (hENT1 [1]) [min⁻¹] | kon (hENT1 [1]) [nM⁻¹ min⁻¹] | increase in affinity compared to 1 (hENT1 [2]) | Ki (hENT1 [3]) [nM] | inhibitor washed away (recovery of [3H]NBTI binding) (hENT1 [4]) | inhibitor still bound to the target (hENT1 [4]; after four extensive washing steps, 10 × IC50 pre-incubation) | RT (hENT1 [5]) [min] |
| --- | --- | --- | --- | --- | --- | --- | --- | --- |
| CC(=O)Nc1cc2c(cc1Cl)C(=O)NC1(CCN(CCNC(=O)c3c(Cl)cccc3Cl)CC1)O2 [Compound 4] | 2.6 ± 0.7 | 0.386 ± 0.107 | 0.012 ± 0.006 |  |  |  |  |  |
| CC(=O)NCCCNc1cc2c(cc1Cl)C(=O)NC1(CCN(CCNC(=O)c3c(Cl)cccc3Cl)CC1)O2 [Compound 9] | 10 ± 0.9 | 0.096 ± 0.008 | 0.025 ± 0.005 |  |  |  |  |  |
| CNCCCNc1cc2c(cc1Cl)C(=O)NC1(CCN(CCNC(=O)c3c(Cl)cccc3Cl)CC1)O2 [Compound 8] | 3.4 ± 0.6 | 0.296 ± 0.050 | 0.011 ± 0.004 |  |  |  |  |  |
| CN(C)c1cc2c(cc1Cl)C(=O)NC1(CCN(CCNC(=O)c3c(Cl)cccc3Cl)CC1)O2 [Compound 3] | 6.6 ± 0.9 | 0.151 ± 0.020 | 0.158 ± 0.048 | approximately 30 fold |  |  |  |  |
| Nc1cc2c(cc1Cl)C(=O)NC1(CCN(CCNC(=O)c3c(Cl)cccc3Cl)CC1)O2 [Compound 1] |  |  |  |  | 145 |  |  |  |
| CN(CCCNc1cc2c(cc1Cl)C(=O)NC1(CCN(CCNC(=O)c3c(Cl)cccc3Cl)CC1)O2)C(=O)OC(C)(C)C [Compound 10] | 26 ± 2.0 | 0.038 ± 0.003 | 0.033 ± 0.003 |  |  |  |  |  |
| O=C1NC2(CCN(CCNC(=O)c3c(Cl)cccc3Cl)CC2)Oc2cc(N3CCNCC3)c(Cl)cc21 [Compound 12] | 2.9 ± 0.2 | 0.350 ± 0.026 | 0.038 ± 0.004 |  |  |  |  |  |
| CC(C)(C)OC(=O)N1CCN(c2cc3c(cc2Cl)C(=O)NC2(CCN(CCNC(=O)c4c(Cl)cccc4Cl)CC2)O3)CC1 [Compound 14] | 38 ± 14 | 0.027 ± 0.010 | 0.020 ± 0.001 |  |  |  |  |  |
| CNc1cc2c(cc1Cl)C(=O)NC1(CCN(CCNC(=O)c3c(Cl)cccc3Cl)CC1)O2 [Compound 2] | 4.9 ± 1.1 | 0.203 ± 0.047 | 0.123 ± 0.029 | approximately 30 fold |  |  |  |  |
| COc1cc(C(=O)OCCCN2CCCN(CCCOC(=O)c3cc(OC)c(OC)c(OC)c3)CC2)cc(OC)c1OC [dilazep] |  |  |  |  |  |  |  | 44 |
| O=C1NC2(CCN(CCNC(=O)c3c(Cl)cccc3Cl)CC2)Oc2cc(O)c(Cl)cc21 [Compound 20] |  |  |  |  | 1040 |  |  |  |
| NC(=O)C1CN(CCCCC(c2ccc(F)cc2)c2ccc(F)cc2)CCN1CC(=O)Nc1c(Cl)cc(N)cc1Cl (centres unmarked) [Draflazine] |  |  |  |  |  |  |  | 88 |
| COCNc1cc2c(cc1Cl)C(=O)NC1(CCN(CCNC(=O)c3c(Cl)cccc3Cl)CC1)O2 [Compound 5] | 5.4 ± 0.7 | 0.185 ± 0.023 | 0.036 ± 0.006 |  |  |  |  |  |
| O=C1NC2(CCN(CCNC(=O)c3c(Cl)cccc3Cl)CC2)Oc2cc(N3CCOCC3)c(Cl)cc21 [Compound 11] | 16 ± 3.3 | 0.064 ± 0.014 | 0.040 ± 0.006 |  |  |  |  |  |
| CN1CCN(c2cc3c(cc2Cl)C(=O)NC2(CCN(CCNC(=O)c4c(Cl)cccc4Cl)CC2)O3)CC1 [Compound 13] | 11 ± 0.5 | 0.089 ± 0.004 | 0.027 ± 0.004 |  |  |  |  |  |

Now from value to compound, other results behind:

| RT (residence time) (hENT1 [1]) [min] | koff (hENT1 [1]) [min⁻¹] | kon (hENT1 [1]) [nM⁻¹ min⁻¹] | increase in affinity compared to 1 (hENT1 [2]) | Ki (hENT1 [3]) [nM] | inhibitor washed away (recovery of [3H]NBTI binding) (hENT1 [4]) | inhibitor still bound to the target (hENT1 [4]; after four extensive washing steps, 10 × IC50 pre-incubation) | Compound | RT (hENT1 [5]) [min] |
| --- | --- | --- | --- | --- | --- | --- | --- | --- |
| 1.9 ± 0.1 | 0.535 ± 0.031 | 0.022 ± 0.002 |  |  |  |  | CN1CCC(Nc2cc3c(cc2Cl)C(=O)NC2(CCN(CCNC(=O)c4c(Cl)cccc4Cl)CC2)O3)CC1 [Compound 17] |  |
| 79 ± 20 | 0.013 ± 0.003 | 0.054 ± 0.015 |  |  |  |  | CC(=O)N1CCC(Oc2cc3c(cc2Cl)C(O)CC2(CCN(CCNC(=O)c4c(Cl)cccc4Cl)CC2)O3)CC1 (centres unmarked) [Compound 27] |  |
|  | 0.414 ± 0.085 | 0.127 ± 0.020 |  |  |  |  | CN1CCC(Oc2cc3c(cc2Cl)C(=O)NC2(CCN(CCNC(=O)c4c(Cl)cccc4Cl)CC2)O3)CC1 [Compound 24] |  |
| 10 ± 0.7 | 0.100 ± 0.007 | 0.033 ± 0.008 |  |  |  |  | O=C1NC2(CCN(CCNC(=O)c3c(Cl)cccc3Cl)CC2)Oc2cc(NC3CCOCC3)c(Cl)cc21 [Compound 15] |  |
| 87 ± 8.7 | 0.011 ± 0.001 | 0.097 ± 0.007 |  |  |  |  | CC(=O)N1CCC(Oc2cc3c(cc2Cl)C=CC2(CCN(CCNC(=O)c4c(Cl)cccc4Cl)CC2)O3)CC1 [Compound 28] |  |
| 34 ± 9.7 | 0.030 ± 0.009 | 0.019 ± 0.001 |  |  |  |  | CC(C)(C)OC(=O)N1CCC(Nc2cc3c(cc2Cl)C(=O)NC2(CCN(CCNC(=O)c4c(Cl)cccc4Cl)CC2)O3)CC1 [Compound 19] |  |
| 18 ± 3.6 | 0.056 ± 0.011 | 0.130 ± 0.051 |  |  |  |  | CC(C)Oc1cc2c(cc1Cl)C(=O)NC1(CCN(CCNC(=O)c3c(Cl)cccc3Cl)CC1)O2 [Compound 21] |  |
| 2.2 ± 0.4 | 0.464 ± 0.092 | 0.016 ± 0.002 |  |  |  |  | O=C1NC2(CCN(CCNC(=O)c3c(Cl)cccc3Cl)CC2)Oc2cc(NC3CCNCC3)c(Cl)cc21 [Compound 16] |  |
| 26 ± 6.5 | 0.038 ± 0.009 | 0.026 ± 0.003 |  |  | approximately 60% |  | CC(=O)N1CCC(Nc2cc3c(cc2Cl)C(=O)NC2(CCN(CCNC(=O)c4c(Cl)cccc4Cl)CC2)O3)CC1 [Compound 18] |  |
| 52 ± 20 | 0.019 ± 0.007 | 0.095 ± 0.020 |  |  |  |  | CC(=O)N1CCC(Oc2cc3c(cc2Cl)CCC2(CCN(CCNC(=O)c4c(Cl)cccc4Cl)CC2)O3)CC1 [Compound 29] |  |
| 21 ± 1.4 | 0.048 ± 0.003 | 0.101 ± 0.035 |  |  |  |  | O=C1NC2(CCN(CCNC(=O)c3c(Cl)cccc3Cl)CC2)Oc2cc(NC3CCCC3)c(Cl)cc21 [Compound 6] |  |
| 35 ± 7.6 | 0.029 ± 0.006 | 0.029 ± 0.007 |  |  |  |  | O=C1NC2(CCN(CCNC(=O)c3c(Cl)cccc3Cl)CC2)Oc2cc(OC3CCCC3)c(Cl)cc21 [Compound 22] |  |
| 72 ± 14 | 0.014 ± 0.003 | 0.032 ± 0.004 |  |  | 37% | more than 60% | CC(=O)N1CCC(Oc2cc3c(cc2Cl)C(=O)NC2(CCN(CCNC(=O)c4c(Cl)cccc4Cl)CC2)O3)CC1 [Compound 25] |  |
| 66 ± 20 | 0.015 ± 0.005 | 0.043 ± 0.008 |  |  |  |  | CC(=O)N1CCC(Oc2cc3c(cc2Cl)C(=O)CC2(CCN(CCNC(=O)c4c(Cl)cccc4Cl)CC2)O3)CC1 [Compound 26] |  |
|  | 0.204 ± 0.051 | 0.122 ± 0.040 |  |  | completely washed away |  | O=C1NC2(CCN(CCNC(=O)c3c(Cl)cccc3Cl)CC2)Oc2cc(OC3CCNCC3)c(Cl)cc21 [Compound 23] |  |
